Laboratory results from US20120324604A1, “PESTICIDAL MIXTURES CONTAINING ISOXAZOLINE DERIVATIVES AND A FUNGICIDE” (priority 2010, published 2012).

What was measured:
Assay type in all cases: cell-based
[1] = system: Glomerella lagenarium (syn. Colletotrichum lagenarium); assay: Glomerella lagenarium (Anthracnose of Cucurbits) growth inhibition, microtiter plate, photometric; settings: alone
Protocol: Glomerella lagenarium (syn. Colletotrichum lagenarium), Anthracnose of Cucurbits:
(§1) Conidia of the fungus from cryogenic storage were directly mixed into nutrient broth (potato dextrose broth). After placing a (DMSO) solution of the test compounds into a microtiter plate (96-well format) the nutrient broth containing the fungal spores was added.

Pythium ultimum = Pythium ultimum (Damping Off) growth inhibition, microtiter plate, photometric
Protocol: Pythium ultimum (Damping Off):
Mycelial fragments of the fungus, prepared from a fresh liquid culture, were directly mixed into nutrient broth (potato dextrose broth). After placing a (DMSO) solution of the test compounds into a microtiter plate (96-well format) the nutrient broth containing the fungal spores was added.

Fusarium culmorum = Fusarium culmorum (Root Rot) growth inhibition, microtiter plate, photometric; settings: alone
Protocol: Fusarium culmorum (Root Rot):
as §1

Septoria tritici = Septoria tritici (Leaf Blotch) growth inhibition, microtiter plate, photometric; settings: for AVERAGE DEAD IN % A1: A1 alone; for AVERAGE DEAD IN %: alone
Protocol: Septoria tritici (Leaf Blotch):
as §1

[2] = system: Mycosphaerella arachidis (syn. Cercospora arachidicola); assay: Mycosphaerella arachidis (Brown Leaf Spot of Groundnut) growth inhibition, microtiter plate, photometric; settings: alone
Protocol: Mycosphaerella arachidis (syn. Cercospora arachidicola), Brown Leaf Spot of Groundnut (Peanut):
as §1

Gaeumannomyces graminis = Gaeumannomyces graminis growth inhibition, microtiter plate, photometric
Protocol: Mycelial fragments of the fungus from cryogenic storage were directly mixed into nutrient broth (potato dextrose broth). After placing a (DMSO) solution of the test compounds into a microliter plate (96-well format) the nutrient broth containing the fungal spores was added.

Rhizoctonia solani = Rhizoctonia solani (Foot Rot, Damping-Off) growth inhibition, microtiter plate, photometric
Protocol: Rhizoctonia solani (Foot Rot, Damping-Off):
Mycelial fragments of the fungus from cryogenic storage were directly mixed into nutrient broth (potato dextrose broth). After placing a (DMSO) solution of the test compounds into a microtiter plate (96-well format) the nutrient broth containing the fungal spores was added.

[3] = single compound at 0.0390625 ppm AI
[4] = single compound at 0.078125 ppm AI
[5] = single compound at 0.15625 ppm AI
[6] = single compound at 0.3125 ppm AI
[7] = single compound at 0.625 ppm AI
[8] = applied alone, 0.0390625 ppm AI

Cc1cc(C2=NOC(c3cc(Cl)cc(Cl)c3)(C(F)(F)F)C2)ccc1C(=O)NC1(C)CSC1 (racemic) [A1]
0%: AVERAGE DEAD IN % ([1]; 0.0390625 ppm AI) | AVERAGE DEAD IN % ([1]; 0.078125 ppm AI) | AVERAGE DEAD IN % ([1]; 0.15625 ppm AI) | AVERAGE DEAD IN % ([1]; 0.3125 ppm AI) | AVERAGE DEAD IN % ([1]; 0.625 ppm AI) | AVERAGE DEAD IN % ([1]; 1.25 ppm AI) | AVERAGE DEAD IN % ([1]; 2.5 ppm AI) | AVERAGE DEAD IN % ([1]; 5 ppm AI) | AVERAGE DEAD IN % ([1]; 10 ppm AI) | AVERAGE DEAD IN % ([1]; 20 ppm AI) | AVERAGE DEAD IN % (Pythium ultimum; [3]) | AVERAGE DEAD IN % (Pythium ultimum; [4]) | AVERAGE DEAD IN % (Pythium ultimum; [5]) | AVERAGE DEAD IN % (Pythium ultimum; [6]) | AVERAGE DEAD IN % (Pythium ultimum; [7]) | AVERAGE DEAD IN % (Pythium ultimum; single compound at 1.25 ppm AI) | AVERAGE DEAD IN % (Pythium ultimum; single compound at 2.5 ppm AI) | AVERAGE DEAD IN % (Pythium ultimum; single compound at 5 ppm AI) | AVERAGE DEAD IN % (Pythium ultimum; single compound at 10 ppm AI) | AVERAGE DEAD IN % (Pythium ultimum; single compound at 20 ppm AI) | AVERAGE DEAD IN % (Fusarium culmorum; 0.625 PPM AI) | AVERAGE DEAD IN % (Fusarium culmorum; 1.25 PPM AI) | AVERAGE DEAD IN % (Fusarium culmorum; 2.5 PPM AI) | AVERAGE DEAD IN % (Fusarium culmorum; 5 PPM AI) | AVERAGE DEAD IN % (Fusarium culmorum; 10 PPM AI) | AVERAGE DEAD IN % (Fusarium culmorum; 20 PPM AI) | AVERAGE DEAD IN % A1 (Septoria tritici; 0.0390625 ppm AI) | AVERAGE DEAD IN % A1 (Septoria tritici; 0.078125 ppm AI) | AVERAGE DEAD IN % A1 (Septoria tritici; 0.15625 ppm AI) | AVERAGE DEAD IN % A1 (Septoria tritici; 0.3125 ppm AI) | AVERAGE DEAD IN % A1 (Septoria tritici; 0.625 ppm AI) | AVERAGE DEAD IN % A1 (Septoria tritici; 1.25 ppm AI) | AVERAGE DEAD IN % A1 (Septoria tritici; 2.5 ppm AI) | AVERAGE DEAD IN % A1 (Septoria tritici; 5 ppm AI) | AVERAGE DEAD IN % A1 (Septoria tritici; 10 ppm AI) | AVERAGE DEAD IN % A1 (Septoria tritici; 20 ppm AI) | AVERAGE DEAD IN % (Septoria tritici; 0.0390625 ppm AI) | AVERAGE DEAD IN % (Septoria tritici; 0.078125 ppm AI) | AVERAGE DEAD IN % (Septoria tritici; 0.15625 ppm AI) | AVERAGE DEAD IN % (Septoria tritici; 0.3125 ppm AI) | AVERAGE DEAD IN % (Septoria tritici; 0.625 ppm AI) | AVERAGE DEAD IN % (Septoria tritici; 1.25 ppm AI) | AVERAGE DEAD IN % (Septoria tritici; 2.5 ppm AI) | AVERAGE DEAD IN % (Septoria tritici; 5 ppm AI) | AVERAGE DEAD IN % (Septoria tritici; 10 ppm AI) | AVERAGE DEAD IN % (Septoria tritici; 20 ppm AI) | AVERAGE DEAD IN % ([2]; 0.0390625 ppm AI) | AVERAGE DEAD IN % ([2]; 0.078125 ppm AI) | AVERAGE DEAD IN % ([2]; 0.15625 ppm AI) | AVERAGE DEAD IN % ([2]; 0.3125 ppm AI) | AVERAGE DEAD IN % ([2]; 0.625 ppm AI) | AVERAGE DEAD IN % ([2]; 1.25 ppm AI) | AVERAGE DEAD IN % ([2]; 2.5 ppm AI) | AVERAGE DEAD IN % ([2]; 5 ppm AI) | AVERAGE DEAD IN % ([2]; 10 ppm AI) | AVERAGE DEAD IN % (Gaeumannomyces graminis; [8]) | AVERAGE DEAD IN % (Gaeumannomyces graminis; applied alone, 0.078125 ppm AI) | AVERAGE DEAD IN % (Gaeumannomyces graminis; applied alone, 0.15625 ppm AI) | AVERAGE DEAD IN % (Gaeumannomyces graminis; applied alone, 0.3125 ppm AI) | AVERAGE DEAD IN % (Gaeumannomyces graminis; applied alone, 0.625 ppm AI) | AVERAGE DEAD IN % (Gaeumannomyces graminis; applied alone, 1.25 ppm AI) | AVERAGE DEAD IN % (Gaeumannomyces graminis; applied alone, 2.5 ppm AI) | AVERAGE DEAD IN % (Gaeumannomyces graminis; applied alone, 5 ppm AI) | AVERAGE DEAD IN % (Gaeumannomyces graminis; applied alone, 10 ppm AI) | AVERAGE DEAD IN % (Gaeumannomyces graminis; applied alone, 20 ppm AI) | AVERAGE DEAD IN % (Gaeumannomyces graminis; [3]) | AVERAGE DEAD IN % (Gaeumannomyces graminis; [4]) | AVERAGE DEAD IN % (Gaeumannomyces graminis; [5]) | AVERAGE DEAD IN % (Gaeumannomyces graminis; [6]) | AVERAGE DEAD IN % (Gaeumannomyces graminis; [7]) | AVERAGE DEAD IN % (Gaeumannomyces graminis; single compound at 1.25 ppm AI) | AVERAGE DEAD IN % (Gaeumannomyces graminis; single compound at 2.5 ppm AI) | AVERAGE DEAD IN % (Gaeumannomyces graminis; single compound at 5 ppm AI) | AVERAGE DEAD IN % (Gaeumannomyces graminis; single compound at 10 ppm AI) | AVERAGE DEAD IN % (Gaeumannomyces graminis; single compound at 20 ppm AI) | AVERAGE DEAD IN % (Rhizoctonia solani; [8]) | AVERAGE DEAD IN % (Rhizoctonia solani; applied alone, 0.078125 ppm AI) | AVERAGE DEAD IN % (Rhizoctonia solani; applied alone, 0.15625 ppm AI) | AVERAGE DEAD IN % (Rhizoctonia solani; applied alone, 0.3125 ppm AI) | AVERAGE DEAD IN % (Rhizoctonia solani; applied alone, 0.625 ppm AI) | AVERAGE DEAD IN % (Rhizoctonia solani; applied alone, 1.25 ppm AI) | AVERAGE DEAD IN % (Rhizoctonia solani; applied alone, 2.5 ppm AI) | AVERAGE DEAD IN % (Rhizoctonia solani; applied alone, 5 ppm AI) | AVERAGE DEAD IN % (Rhizoctonia solani; applied alone, 10 ppm AI) | AVERAGE DEAD IN % (Rhizoctonia solani; applied alone, 20 ppm AI) | AVERAGE DEAD IN % (Rhizoctonia solani; [3]) | AVERAGE DEAD IN % (Rhizoctonia solani; [4]) | AVERAGE DEAD IN % (Rhizoctonia solani; [5]) | AVERAGE DEAD IN % (Rhizoctonia solani; [6]) | AVERAGE DEAD IN % (Rhizoctonia solani; [7]) | AVERAGE DEAD IN % (Rhizoctonia solani; single compound at 1.25 ppm AI) | AVERAGE DEAD IN % (Rhizoctonia solani; single compound at 2.5 ppm AI) | AVERAGE DEAD IN % (Rhizoctonia solani; single compound at 5 ppm AI) | AVERAGE DEAD IN % (Rhizoctonia solani; single compound at 10 ppm AI) | AVERAGE DEAD IN % (Rhizoctonia solani; single compound at 20 ppm AI)
